Experimental data: patent US20080255169A1 (priority 2004, published 2008)
Read-outs that look alike come from different tables or passages of the source.

Tests used:
PC-3 cells = experiment: Cell invasion assay: invasion of PC-3 cells through Matrigel; assay type: cell-based; details: Homo sapiens, 72 hours
Text: The overexpression regulates cell adhesion and migration to and invasion through the extracellular matrix. By blocking the interaction between extracellular matrix components like collagen and α2β1 it is possible to block cancer cell migration and invasion in vitro. Prostate cancer cells (PC-3) expressing α2β1 endogenously were used to test the in vitro anticancer potential of the inhibitors of the present invention.
Invasion of PC-3 cells (CRL-1435, ATCC) through Matrigel was studied using BD Biocoat invasion inserts (BD Biosciences). Inserts were stored at −20° C. Before the experiments inserts were allowed to adjust to the room temperature. 500 μl of serum free media (Ham's F12K medium, 2 mM L-glutamine, 1.5 g/l sodium bicarbonate) was added into the inserts and allowed to rehydrate at 37° C. in cell incubator for two hours. The remaining media was aspirated. PC-3 cells were detached, pelleted and suspended into serum free media (50 000 cells/500 μl). 300 μl of cell suspension was added into the insert in the absence (control) or presence of the inhibitor according to the pre-sent invention. Inserts were placed on the 24-well plates; each well containing 700 μl of cell culture media with 3% of fetal bovine serum as chemo-attractant. Cells were allowed to invade for 72 hours at 37° C. in cell incubator. Inserts were washed with 700 μl PBS, and fixed with 4% paraformaldehyde for 10 minutes. Paraformaldehyde was aspirated and cells were washed with 700 μl of PBS and inserts were stained by incubation with hematoxylin for 1 minute. The stain was removed by washing the inserts with 700 μl of PBS. Inserts were allowed to dry. Fixed invaded cells were calculated under the microscope. Invasion % was calculated as a comparison to the control.
Cell invasion assay is used as an in vitro cancer metastatis model. […] Some structures inhibit invasion even with submicromolar concentrations. […] In FIG. 2, the dose response of compound 161 in invasion assay is shown. Compound 161 gave the best EC50 value (0.3 μM) in invasion assay. Invasion assay was done with human prostata cancer cell line, PC-3.

α2β1 integrin [1] = target: α2β1 integrin (Homo sapiens, UniProt P05556+P17301); experiment: Cell adhesion assay; assay type: cell-based; details: for Emax: concentration not given, read-out: Emax in cell adhesion assay; for EC50: read-out: EC50 in cell adhesion assay
Chain of α2β1 integrin (Homo sapiens, UniProt P05556+P17301) (P17301 30-1181): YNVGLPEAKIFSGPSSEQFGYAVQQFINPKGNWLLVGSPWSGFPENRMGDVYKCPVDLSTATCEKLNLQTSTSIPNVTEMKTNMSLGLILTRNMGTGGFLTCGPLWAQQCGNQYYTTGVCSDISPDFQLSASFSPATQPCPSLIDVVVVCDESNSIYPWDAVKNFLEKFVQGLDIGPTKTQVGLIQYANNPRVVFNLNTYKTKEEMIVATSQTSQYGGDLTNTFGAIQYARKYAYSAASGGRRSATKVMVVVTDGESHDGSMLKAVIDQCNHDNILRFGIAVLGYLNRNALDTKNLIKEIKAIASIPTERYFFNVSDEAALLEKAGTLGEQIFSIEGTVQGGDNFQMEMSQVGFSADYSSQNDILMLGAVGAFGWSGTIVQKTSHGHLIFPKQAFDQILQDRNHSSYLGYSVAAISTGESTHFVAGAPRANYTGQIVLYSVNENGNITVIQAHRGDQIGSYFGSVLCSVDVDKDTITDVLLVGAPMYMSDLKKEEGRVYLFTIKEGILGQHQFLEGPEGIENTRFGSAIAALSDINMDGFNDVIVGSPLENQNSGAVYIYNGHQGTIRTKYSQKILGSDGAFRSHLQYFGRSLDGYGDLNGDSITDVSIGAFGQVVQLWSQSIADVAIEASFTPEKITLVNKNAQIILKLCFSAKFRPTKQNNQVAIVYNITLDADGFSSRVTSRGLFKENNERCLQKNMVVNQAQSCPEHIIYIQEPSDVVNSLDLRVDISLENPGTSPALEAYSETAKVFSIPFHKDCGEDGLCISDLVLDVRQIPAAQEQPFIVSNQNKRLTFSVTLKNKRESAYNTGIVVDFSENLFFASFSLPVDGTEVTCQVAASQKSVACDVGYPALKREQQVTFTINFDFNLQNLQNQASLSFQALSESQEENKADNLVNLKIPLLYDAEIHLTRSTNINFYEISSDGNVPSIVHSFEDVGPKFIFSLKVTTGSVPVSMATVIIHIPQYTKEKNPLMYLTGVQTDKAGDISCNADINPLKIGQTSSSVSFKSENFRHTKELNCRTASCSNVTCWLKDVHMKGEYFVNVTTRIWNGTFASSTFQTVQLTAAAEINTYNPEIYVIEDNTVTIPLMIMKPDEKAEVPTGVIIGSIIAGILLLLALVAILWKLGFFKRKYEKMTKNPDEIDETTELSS
Chain of α2β1 integrin (Homo sapiens, UniProt P05556+P17301) (P05556 21-798 partner): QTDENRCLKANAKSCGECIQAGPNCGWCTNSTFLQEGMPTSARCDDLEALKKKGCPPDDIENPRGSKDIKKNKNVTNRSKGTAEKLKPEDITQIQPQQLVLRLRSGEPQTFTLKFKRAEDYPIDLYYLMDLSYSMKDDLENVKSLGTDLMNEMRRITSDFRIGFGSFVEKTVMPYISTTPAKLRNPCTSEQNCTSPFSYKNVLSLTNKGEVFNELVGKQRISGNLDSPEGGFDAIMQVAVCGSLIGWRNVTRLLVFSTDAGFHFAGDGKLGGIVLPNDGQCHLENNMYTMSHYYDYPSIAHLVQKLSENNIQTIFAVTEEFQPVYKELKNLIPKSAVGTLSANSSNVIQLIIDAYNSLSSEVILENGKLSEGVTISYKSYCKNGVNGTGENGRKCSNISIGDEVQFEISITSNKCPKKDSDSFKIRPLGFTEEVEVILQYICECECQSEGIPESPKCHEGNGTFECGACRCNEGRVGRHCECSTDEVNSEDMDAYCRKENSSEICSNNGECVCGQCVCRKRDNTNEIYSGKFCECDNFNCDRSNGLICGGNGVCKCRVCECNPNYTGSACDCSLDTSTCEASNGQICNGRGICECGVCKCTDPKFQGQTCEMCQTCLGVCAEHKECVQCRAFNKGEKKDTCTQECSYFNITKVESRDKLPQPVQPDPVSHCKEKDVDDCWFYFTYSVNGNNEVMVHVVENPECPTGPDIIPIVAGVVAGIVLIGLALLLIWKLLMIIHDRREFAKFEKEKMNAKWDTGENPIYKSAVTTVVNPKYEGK

α2β1 integrin [2] = target: α2β1 integrin (Homo sapiens, UniProt P17301); experiment: Cell adhesion assay; assay type: cell-based
Chain of α2β1 integrin (Homo sapiens, UniProt P17301) (P17301 30-1181): as the sequence (P17301 30-1181) above
Chain of α2β1 integrin (Homo sapiens, UniProt P17301) (P05556 21-798 partner): as the sequence (P05556 21-798 partner) above

[3] = read-out: EC50 in invasion assay

Row | EC50 (PC-3 cells; [3]) [µM] | Emax (α2β1 integrin [1]) [%] | EC50 (α2β1 integrin [1]) [µM] | Emax at 50 µM (α2β1 integrin [1]) [%] | melting point [°C] | EC50 in cell adhesion assay (α2β1 integrin [2]) | Emax in cell adhesion assay (α2β1 integrin [2]; concentration not given) [%] | EC50 (PC-3 cells; dose response FIG. 2, read-out: EC50 value in invasion assay) [µM] | SMILES
1 | ≤ 1 | 66 | 15 | – | – | – | – | – | Cc1cc(F)ccc1-c1cccc(S(=O)(=O)Nc2ccc(N(C)C)cc2)c1 [Compound 222, N-[4-(dimethylamino)phenyl]-4′-fluoro-2′-methyl-1,1′-biphenyl-3-sulfonamide]
2 | ≤ 1 | – | 20 | 60 | – | – | – | – | Cn1ccc2cc(NS(=O)(=O)c3cccc(-c4ccc(F)cc4)c3)ccc21 [Compound 285, 4′-fluoro-biphenyl-3-sulfonic acid (1-methyl-1H-indol-5-yl)-amide]
3 | ≤ 1 | 81 | 28 | – | – | – | – | – | Cc1cc(C)nc(Nc2ccc(NS(=O)(=O)c3cccc(Br)c3)cc2)n1 [Compound 183]
4 | ≤ 1 | – | 24 | 64 | – | – | – | – | CC(=O)c1ccc(-c2cccc(S(=O)(=O)Nc3ccc(N(C)C)cc3)c2)s1 [Compound 239, 3-(5-acetylthien-2-yl)-N-[4-(dimethylamino)phenyl]benzenesulfonamide]
5 | – | 70 | 3 | – | 158 to 160 | – | – | – | CN(C)c1ccc(NS(=O)(=O)c2cccc(-c3ccc(F)cc3)c2)cc1 [Compound 119, N-[4-(dimethylamino)phenyl]-4′-fluoro-1,1′-biphenyl-3-sulphonamide]
6 | – | – | – | 80 | – | dd could not be detected | – | – | Cc1[nH]c2ccc(NS(=O)(=O)c3ccc(Cl)cc3Cl)cc2c1C [Compound 210]
7 | – | – | 13 | – | 43 | – | 65 | – | COc1ccc(-c2cccc(S(=O)(=O)Nc3ccc(N(C)C)cc3)c2)cc1OC [Compound 102, 3′,4′-dimethoxy-biphenyl-3-sulphonic acid (4-dimethylamino-phenyl)-amide]
8 | ≤ 1 | – | 17 | 59 | – | – | – | – | COc1ccc(-c2cnn(-c3ccc(NS(=O)(=O)c4ccc(Cl)cc4)cc3)c2)cc1 [Compound 176]
9 | ≤ 1 | 70 | 6 | – | – | – | – | – | Cc1cc2cc(N(C)S(=O)(=O)c3ccc(Cl)cc3Cl)ccc2n1C [Compound 242, 2,4-dichloro-N-(1,2-dimethyl-1H-indol-5-yl)-N-methyl-benzenesulfonamide]
10 | ≤ 1 | 82 | 34 | – | – | – | – | 0.3 | O=S(=O)(Nc1ccc2cc[nH]c2c1)c1ccc(Cl)cc1Cl [Compound 161, 2,4-dichloro-N-(1H-indol-6-yl)-benzenesulfonamide]
11 | ≤ 1 | 58 | 25 | – | – | – | – | – | Cc1cc2cc(NS(=O)(=O)c3ccc(Cl)cc3Cl)ccc2[nH]1 [Compound 131, 2,4-dichloro-N-(2-methyl-1H-indol-5-yl)-benzenesulfonamide]
12 | ≤ 1 | 78 | 47 | – | – | – | – | – | CN(C)c1ccc(N(C)S(=O)(=O)c2cccc(Br)c2)cc1 [Compound 281]
13 | ≤ 1 | 79 | 33 | – | – | – | – | – | Cc1cc(C)n(-c2ccc(NS(=O)(=O)c3cccc(-c4ccc(F)cc4)c3)cc2)n1 [Compound 298]
